Results taken from patent US9175077B2, “Nucleic acids encoding biologically active polypeptides derived from a novel early stage pregnancy factor designated maternin (MA)” (NOBEL BIOSCIENCES LLC, priority 1999, dated 2015).
“Also recorded” adds a separate entry of the source. Like-named read-outs stand apart in the source and are kept apart here.

How the values were obtained:
Ewing's sarcoma = experiment: Confocal microscopy apoptosis; assay type: cell-based, human; settings: 200 ng/ml; 24 hrs
Procedure: (§1) More extensive studies of the effects of MA and with truncated synthetic forms of MA (MAS) on a wide range of other human tumor cells were carried out using three-dimensional confocal microscopy. Cells were cultured and then seeded onto gelatinized glass chamber slides and incubated 24 hrs with the various test materials. The slides were then fixed with formalin and treated serially with Triton X-100 (0.01%) for 10 min at 25°, 0.4 ug/ml fluorescein isothiocyanate (FITC)-labeled Phalloidin (Sigma Chem. Co.) at room temperature for 30 min to bind actin, washed with PBS and the DNA stained with Propidium iodide (PI) (0.5 ug·ml) (Sigma Chemical Co.), for 15 min. The stained slides were washed and mounted on slow fade (Molecular Probes, Inc., Eugene, Oreg.) and examined through a dual emission filter XF53 (Omega, Inc., Brattlesboro, Va.) by fluorescent microscopy. In some experiments only DNA staining was performed. In these instances Triton X-100 was not used. The slides were stained with PI and examined for cell morphology and chromatin degradation under 3D confocal microscopy.

KS Y-1 cells = experiment: Confocal microscopy apoptosis; assay type: cell-based, human; settings: 200 ng/ml; 24 hrs
Procedure: as §1

[1] = tested on: carcinoma of the breast HTB124; experiment: Confocal microscopy apoptosis; assay type: cell-based, human; settings: 200 ng/ml; 24 hrs
Procedure: as §1

carcinoma of the colon = experiment: Confocal microscopy apoptosis; assay type: cell-based, human; settings: 200 ng/ml; 24 hrs
Procedure: as §1

[2] = tested on: carcinoma of the kidney HTB46; experiment: Confocal microscopy apoptosis; assay type: cell-based, human; settings: 200 ng/ml; 24 hrs
Procedure: as §1

[3] = tested on: carcinoma of the lung HTB184; experiment: Confocal microscopy apoptosis; assay type: cell-based, human; settings: 200 ng/ml; 24 hrs
Procedure: as §1

[4] = tested on: carcinoma of the pancreas CRL 1682; experiment: Confocal microscopy apoptosis; assay type: cell-based, human; settings: 200 ng/ml; 24 hrs
Procedure: as §1

fibrosarcoma 4TB166 = experiment: Confocal microscopy apoptosis; assay type: cell-based, human; settings: 200 ng/ml; 24 hrs
Procedure: as §1

gliobastoma HTB16 = experiment: Confocal microscopy apoptosis; assay type: cell-based, human; settings: 200 ng/ml; 24 hrs
Procedure: as §1

[5] = tested on: leukemia and lymphoma cell lines: HUT78, DAVDI, HG, SULTAN, T-cell lymphoma; experiment: Confocal microscopy apoptosis; assay type: cell-based, human; settings: 200 ng/ml; 24 hrs
Procedure: as §1

melanoma HTB67 = experiment: Confocal microscopy apoptosis; assay type: cell-based, human; settings: 200 ng/ml; 24 hrs
Procedure: as §1

[6] = tested on: prostate carcinoma cell line PC3; experiment: Confocal microscopy apoptosis; assay type: cell-based, human; settings: 200 ng/ml; 24 hrs
Procedure: as §1

[7] = tested on: prostate carcinoma cell line PC4; experiment: Confocal microscopy apoptosis; assay type: cell-based, human; settings: 200 ng/ml; 24 hrs
Procedure: as §1

[8] = tested on: human carcinoma and sarcoma cells (PC3, KS Y-1); experiment: Xenotransplanted human tumors in immunodeficient mice; assay type: in vivo; settings: controls at equivalent and higher molar concentrations
Procedure: In the first set of experiments, MA was tested against tumors formed by xenotransplantation of various human carcinoma and sarcoma cells in immunodeficient mice. […] […] Three different synthetic forms of MA were used: full length (MAS3) and the previously described MAS1 and MAS2 (Panel C).

HIV-1 = settings: controls at similar, equimolar or higher concentrations
Procedure: Virus (MOI of 0.001) was added to 10^6 cells in RPMI-1640 with 10% FCS. One hour later the various polypeptides were added once. The cells cultured for 3 days with 5 ug PHA and 20 i.m. of II-2/ml at 37°, after which virus was estimated by determining p24 (HIV-1) or p27 (SIV) (Organon-Teknika).
The effect of native and synthetic MA on HIV-1 infection in vitro was evaluated using PHA and II-2 stimulated primary peripheral blood cells (PBMC), CD4+ T-cells enriched fractions from PBMC, and CD14+ macrophage enriched fractions. Infection was with HIV-1 IIIB (PBMC and CD4+ T-cells), HIV-1 Ba-L (macrophages), and two primary HIV-1 isolates not passaged in any cell line (PBMC).

[9] = Summary of active and inactive peptides / overall biological activities
human tumor cells = assay type: cell-based; settings: controls at equimolar or 5 to 10× greater concentrations
Procedure: The anti-tumor activities of MA were assessed in several in vitro and in vivo systems using published methods.^166 In vitro studies were with a wide variety of human tumor cell lines as well as short-term cultures of cells from biopsy samples obtained from tumors. The assays included effects of MA on colony formation, cell number and viability (trypan blue), and apoptosis. Four measures of microscopy were used. In vivo studies included the effects of MA on tumors induced in immunodeficient mice by xenotransplanted various human neoplastic cells, spontaneous neoplasms of immuno-competent mice and rats, and a few standard tumors in immuno-competent mice. Representative examples are presented.
Cells (5×10^5/ml) were seeded in modified Eagle's medium supplemented with 10% FCS, 10% conditioned medium form PHA stimulated human lymphocytes, 2 mM glutamine in 0.8% V/V methylcellulose with or without various treatments in a final volume of 1.0 ml. Then 0.1 ml aliquots were seeded in 96 well flat bottom microtest plates and incubated at 37° C. in 5% CO2 in air for 7 days. Aggregates containing 50 cells or more were scored as colonies.
5×10^5 cells were seeded in triplicate on 24 gelatin coated wells in conditions as described for Panel A and treated with the indicated test materials. After 3 days the cells were dislodged from their monolayers by gentle pipetting with cell dissociation buffer (Life Technologies), counted after trypan blue staining and aliquots examined for Annexin V staining by indirect IFA […].
Studies of the anti-tumor cell effects of MA were extended to other carcinomas, melanoma, some hematopoietic tumors, and carcinomas of the colon, prostate, breast, lung, brain, pancreas, and kidney-using cell lines from these tumors. […] Many more types of tumor cells were studied utilizing other assays (see below).

HIV-1 gene expression = experiment: HIV-1 transgenic mice, pups feeding from treated mothers; assay type: in vivo; settings: mouse, in vivo
Source text: The transgenic mice contain 5.1 kb of the HIV-1 proviral genome, lacking gag and pol genes and 2.3 kb of vector.^172 The newly developed transgenic rat contains the same HIV-1 sequences and vector.
Twenty-four hours after birth the mothers were either inoculated subcutaneously daily for 10 days or received an implanted osmotic pump delivering 30-150 pmoles of either native or synthetic MA or pMA. Various control polypeptides were used at equimolar or vast molar excess. The newborn pups were then allowed to feed from the foster mother breast milk over the entire period. Since the animals are at risk from needle inoculation, breastfeeding was the chosen route for MA administration.
In these experiments total RNA was extracted from samples of skin RNA206 10 days after birth of MA treated and untreated mice. One ug of RNA was reverse transcribed into cDNA using random hexamer primer and […] reverse transcriptase (Life Technologies, Inc.) in a final vol. Of 30 ul. Three ul of each reaction was used for PCR amplification of the HIV-1 gene sequences (env, tat, nef, and rev) as described […], and glyceraldehyde 3-phosphate dehydrogenase (GAPDH) was amplified from each sample for normalization. After 25 cycles, 10% of the products were resolved by electrophoresis on 2% agarose gels, transferred to nitrocellulose membranes by Southern blotting, and hybridized to fluorescein isthiocyanate-labeled oligonucleotide probes complementary to internal sequences of the amplicons […]. Bound probes were detected by chemiluminescence (Amersham) and relative mRNA levels determined by densitrometry after normalization with GAPDH mRNA levels.

[10] = tested on: hematopoietic progenitors (CFU-GEMM, BFU-e, CFU-GM, T-CFC); experiment: Hematopoietic colony formation assays; assay type: cell-based, human
Source text: Hematopoietic colony formation assays with bone marrow or cord blood of normal human volunteers and bone marrow of monkeys, rats, and mice were utilized. The assays are conventional measurements of the number of progenitors for erythrocytes, granulocytes, macrophages, platelets, and T-cells. The culture conditions included growth factors that would give near optimum growth for the particular lineage. These factors included II-3, PHA-lymphocyte conditioned medium, erythropoietin (EPO), II-6, and GM-CSF. The number of colonies developing in methylcellulose reflects the number of progenitor cells, and the percent increase is a measure of the effect of different polypeptides to increase colony number above the maximum obtained with the indicated known growth factors.
The latter is a less conventional assay, and details on the methods involved are described elsewhere.^178

[11] = Lethally irradiated rats and mice; settings: treated at time of radiation
Procedure: In order to determine in vivo relevance of the prohematopoietic effects of MA treated rats and mice under several conditions of bone marrow suppression. First, the effects of native MA and pMA and of the synthetic 15-mer MAS1 were treated for their capacity to reduce or prevent the effects of lethal doses of gamma irradiation. […] MA, pMA, MAS1, and various control polypeptides were given 48 and 24 hrs before, during, or 24 hrs after radiation. The animals treated prior to radiation received either 100 ng vs. 1 ug (rats) or 50 ng vs. 500 ng (mice) as 2 subcutaneous injections.
It is not yet possible to determine the precise molar dose of pMA because of less certainty on its full-length sequence.
To ascertain that the MA effect did promote hematopoiesis in these animals we examined the bone marrow for cellularity and colony formation and determined peripheral blood counts.

[12] = Lethal dose taxol in Sprague-Dawley rats; assay type: in vivo; settings: even at high doses
Procedure: Sprague-Dawley rats were given taxol in large lethal doses, 4.5 mg in one I.P. inoculation. […] Bone marrow suppression can also be a side effect of the clinical use of taxol.^179 As in the radiation experiments, either MA, pMA, MAS1, or various polypeptide controls were given subcutaneously only in two doses 24 and 48 hrs before taxol treatment or were given 3×/week for 4 weeks. […]

## NYRDVRFESIRLPGCPRGVNPVVSYAVALS (listed as Homo sapiens) [MAS2]
Ewing's sarcoma
  induction of apoptosis: induced apoptosis
KS Y-1 cells
  induction of apoptosis: induced apoptosis
[1]
  induction of apoptosis: induced apoptosis
Carcinoma of the colon
  induction of apoptosis: induced apoptosis
[2]
  induction of apoptosis: induced apoptosis
[3]
  induction of apoptosis: induced apoptosis
[4]
  induction of apoptosis: induced apoptosis
Fibrosarcoma 4TB166
  induction of apoptosis: induced apoptosis
Gliobastoma HTB16
  induction of apoptosis: induced apoptosis
[5]
  induction of apoptosis: induced apoptosis
Melanoma HTB67
  induction of apoptosis: induced apoptosis
[6]
  induction of apoptosis: induced apoptosis
[7]
  induction of apoptosis: induced apoptosis
[8]
  effect on xenotransplanted tumor (qualitative): hypocellularity and degenerative changes of the cells; also recorded: undergoing apoptosis
HIV-1
  inhibition of HIV replication (qualitative): full-inhibition

## peptide 6-42: β-core AA 6-42 N-terminal polypeptide with PDGF related sequences (RPRCRPINATLAVEKEGCPVCITVNTTICAGYCPTMT; UniProt P0DN86 26-62, looked up, fragment) [reference compound]
[9]
  biological activities in vitro or in vivo in the experimental systems described: none of the activities

## β-hCG AA 21-52: control peptide 32 amino acids in length, AA 21-52 of β-hCG (EGCPVCITVNTTICAGYCPTMTRVLQGVLPAL; listed as Homo sapiens) [reference compound]
Human tumor cells
  inhibition of growth / induction of apoptosis of neoplastic cells: negative
HIV-1 gene expression
  HIV-1 viral expression in tissues: high expression
  mice dead by day 10: 10 of 10

## β-hCG 6-39: SEQ ID NO: 17 (RPRCRPINATLAVEKEGCPVCITVNTTICAGYCP; listed as Homo sapiens)
Human tumor cells
  inhibition of growth / induction of apoptosis of neoplastic cells: negative

B1: β-core: purified hCG beta core, degradation product of the beta chain of hCG; full length native glycosylated AA 6-40 & 55-92 (protein)
chain 1: RPRCRPINATLAVEKEGCPVCITVNTTICAGYCPTMT
chain 2: VVCNYRDVRFESIRLPGCPRGVNPVVSYAVALSCQCAL
[9]; listed as native glycosylated β-core
  biological activities in vitro or in vivo in the experimental systems described: none of the biological activities
[9]; listed as purified native glycosylated core
  biological activities in vitro or in vivo in the experimental systems described: no activity
Human tumor cells
  inhibition of growth / induction of apoptosis of neoplastic cells: no inhibition of growth or induction of apoptosis
[8]
  effect on xenotransplanted tumor (qualitative): no effect
HIV-1 gene expression
  HIV-1 viral expression in tissues: high expression
  mice dead by day 10: 10 of 10
[10]
  hematopoietic effects in vivo and in vitro: None
[10]; equimolar or higher concentrations
  effect on colony number (qualitative): no significant effect above background
[11]
  time within which animals died: ≤ 5 days
[12]
  effect on survival (qualitative): no effect
